ChEMBL document CHEMBL3885861, “Open TG-GATES”

Species on record: Rattus norvegicus
Assay: Open TG-GATES - Regimen: Single
Type: toxicity, organism-based, Sprague-Dawley
Set-up: regimen Single, gender Male, age 6 weeks
Settings: in vivo, po, 40 mg/kg, route gavage, dose level Low; for APTT / Bas / Eos / Fbg / Hb / Ht / Lym / MCH / MCHC / MCV / Mono / Neu / PT / Plat / RBC / Ret / WBC: tissue Blood; for KIDNEY_L / KIDNEY_R / KIDNEY_TOTAL: tissue Kidney; for LIVER: tissue Liver; for A/G / ALP / ALT / AST / BUN / CRE / Ca / Cl / DBIL / GLC / IP / K / LDH / Na / PL / RALB / TBIL / TC / TG / TP / gamma-GTP: tissue Plasma

## Cc1cccc(C)c1OCC(C)N (configuration not stated) [MEXILETINE]
3 h
  TERMINAL_BW: 218.4 g
  APTT: 20.9 s
  Bas: 0%
  Eos: 0.4%
  Fbg: 302.8 mg/dL
  Hb: 13.1 g/dL
  Ht: 40.8%
  Lym: 80.4%
  MCH: 20.6 pg
  MCHC: 32.1%
  MCV: 64.2 fL
  Mono: 2.2%
  Neu: 16%
  PT: 15.9 s
  Plat: 119 x10_4/uL
  RBC: 634.2 x10_4/ul
  Ret: 7.8%
  WBC: 92.2 x10_2/uL
  KIDNEY_L: 1 g
  KIDNEY_R: 1 g
  KIDNEY_TOTAL: 1.9 g
  LIVER: 10.2 g
  A/G: 1.2
  ALP: 1641.6 IU/L
  ALT: 51 IU/L
  AST: 79.6 IU/L
  BUN: 13.6 mg/dL
  CRE: 0.2 mg/dL
  Ca: 10.7 mg/dL
  Cl: 105.6 meq/L
  DBIL: 0 mg/dL
  GLC: 188.8 mg/dL
  IP: 8.8 mg/dL
  K: 4 meq/L
  LDH: 207.4 IU/L
  Na: 142.4 meq/L
  PL: 149.2 mg/dL
  RALB: 3 g/dL
  TBIL: 0.01 mg/dL
  TC: 84.4 mg/dL
  TG: 67.6 mg/dL
  TP: 5.5 g/dL
  gamma-GTP: 1.2 IU/L
6 h
  TERMINAL_BW: 214 g
  APTT: 23.3 s
  Bas: 0%
  Eos: 0.8%
  Fbg: 314 mg/dL
  Hb: 13.5 g/dL
  Ht: 40.8%
  Lym: 83.6%
  MCH: 20.9 pg
  MCHC: 33.2%
  MCV: 63 fL
  Mono: 2.6%
  Neu: 11.4%
  PT: 16 s
  Plat: 118.1 x10_4/uL
  RBC: 647.4 x10_4/ul
  Ret: 7.2%
  WBC: 88.1 x10_2/uL
  KIDNEY_L: 0.9 g
  KIDNEY_R: 0.9 g
  KIDNEY_TOTAL: 1.8 g
  LIVER: 9.2 g
  A/G: 1.2
  ALP: 1364.6 IU/L
  ALT: 43 IU/L
  AST: 72.8 IU/L
  BUN: 10.4 mg/dL
  CRE: 0.2 mg/dL
  Ca: 10.6 mg/dL
  Cl: 105.6 meq/L
  DBIL: 0 mg/dL
  GLC: 180.8 mg/dL
  IP: 8.5 mg/dL
  K: 4.2 meq/L
  LDH: 153.4 IU/L
  Na: 141 meq/L
  PL: 128.8 mg/dL
  RALB: 3 g/dL
  TBIL: 0.022 mg/dL
  TC: 69 mg/dL
  TG: 68 mg/dL
  TP: 5.5 g/dL
  gamma-GTP: 1.4 IU/L
9 h
  TERMINAL_BW: 217.2 g
  APTT: 22.4 s
  Bas: 0%
  Eos: 0.6%
  Fbg: 293.8 mg/dL
  Hb: 12.7 g/dL
  Ht: 39.7%
  Lym: 73.6%
  MCH: 20.3 pg
  MCHC: 32%
  MCV: 63.6 fL
  Mono: 2.6%
  Neu: 22%
  PT: 16.2 s
  Plat: 106.8 x10_4/uL
  RBC: 624.6 x10_4/ul
  Ret: 8.1%
  WBC: 122.3 x10_2/uL
  KIDNEY_L: 0.9 g
  KIDNEY_R: 0.9 g
  KIDNEY_TOTAL: 1.9 g
  LIVER: 9.3 g
  A/G: 1.2
  ALP: 1650.8 IU/L
  ALT: 40.2 IU/L
  AST: 65.2 IU/L
  BUN: 11.6 mg/dL
  CRE: 0.2 mg/dL
  Ca: 10.4 mg/dL
  Cl: 106.2 meq/L
  DBIL: 0.002 mg/dL
  GLC: 192.2 mg/dL
  IP: 9.6 mg/dL
  K: 4.2 meq/L
  LDH: 127.2 IU/L
  Na: 140.6 meq/L
  PL: 129.6 mg/dL
  RALB: 3 g/dL
  TBIL: 0.022 mg/dL
  TC: 71.4 mg/dL
  TG: 77 mg/dL
  TP: 5.5 g/dL
  gamma-GTP: 1.2 IU/L
24 h
  TERMINAL_BW: 232.2 g
  APTT: 20.7 s
  Bas: 0%
  Eos: 1.4%
  Fbg: 297.2 mg/dL
  Hb: 12.3 g/dL
  Ht: 38.5%
  Lym: 80.2%
  MCH: 19.9 pg
  MCHC: 31.9%
  MCV: 62.6 fL
  Mono: 2.6%
  Neu: 16%
  PT: 16.5 s
  Plat: 114.4 x10_4/uL
  RBC: 616.2 x10_4/ul
  Ret: 7.5%
  WBC: 87.8 x10_2/uL
  KIDNEY_L: 1 g
  KIDNEY_R: 1 g
  KIDNEY_TOTAL: 2 g
  LIVER: 10.5 g
  A/G: 1.2
  ALP: 1448.8 IU/L
  ALT: 44.6 IU/L
  AST: 73.4 IU/L
  BUN: 15.8 mg/dL
  CRE: 0.2 mg/dL
  Ca: 10.8 mg/dL
  Cl: 105.6 meq/L
  DBIL: 0 mg/dL
  GLC: 184.2 mg/dL
  IP: 7.6 mg/dL
  K: 4.1 meq/L
  LDH: 158.6 IU/L
  Na: 141.8 meq/L
  PL: 140 mg/dL
  RALB: 3.1 g/dL
  TBIL: 0.01 mg/dL
  TC: 79 mg/dL
  TG: 89.8 mg/dL
  TP: 5.5 g/dL
  gamma-GTP: 1.6 IU/L
